Data on 13 compounds can be found in patent US20080234202A1, “Non-natural amino acids and neurotensin analogues” (priority 2004, published 2008).

Structures can show the parent of a compound that is named as a salt. Where two headings read alike, the source gives them in different places. Marks after values point to notes of the source that are not given here. Where a SMILES comes first, the peptide text is derived from it. [ ]: non-standard residue; d: D form. The star is where a group is joined. X2 = C[C@@H](CCC[N+](C)(C)C)C(=O)*; Tle = CC(C)(C)[C@H](N)C(=O)O; X1 = C[C@@H](CCCCCN)C(=O)*

Usually EC50 stands for the concentration at which the effect is half-maximal. A lower EC50 goes with higher potency in that assay. The clearance is the volume of plasma or blood freed of the substance per unit of time. Broadly, the AUC(0-inf) is the area under the concentration-time curve extrapolated to infinity. A high value points to high exposure. As usually defined, the Cmax is the highest concentration seen after dosing. What is called Tmax is the time at which the peak concentration occurs. What is called bioavailability is dose-corrected exposure relative to a reference, in per cent. Low values mean little systemic uptake, high ones much systemic uptake.

One series concerns the target NTR-2 (Rattus norvegicus, UniProt Q63384). The conditions noted are these: for Tmax (I.P.) of %MPE / MPE (I.P.): IP at 10 mg/kg; for asterisk at peptide name: significant activity in the hotplate assay: Table 13; for MPE (I.P.): hotplate 52 C, cutoff 30 sec; for MPE (oral) / Tmax (Oral) of %MPE: orally at 20 mg/kg. The procedure:
Animals. […] (230-260 g) or Harlan, Prattville Ala.
The Hotplate Assay. The hotplate assay, a standard rat model for […] pain (see Le Bars et al., Pharmacol. Rev. 53: 597-652 (2001) and Chapman et al., Pain 22:1-31 (2002)), was performed as follows. A hotplate maintained at 52° C. to 53° C. was enclosed on four sides in a plexiglass chamber that extended 6 in. above the plate. Animals were placed on the plate, and the latency between the time a rat was placed on the surface and when it lifts or licks a back paw (indicative of pain sensation) was determined. Animals are removed immediately at the cutoff latency of 30 seconds. Assays are scored as the percent of maximal possible effect (% MPE) defined as 100%, which corresponds to the rats remaining on the hotplate for 30 seconds without responding. Thus, % MPE are calculated using the following equation: % MPE=[(post-drug latency-pre-drug latency)/(cut-off pre-drug latency)]×100%. N=6 or greater for all experiments.
Values for each set of experiments will be submitted to analysis of variance, with dose (vehicle and 5 levels) as the factor. […] An effect will be considered significant if p<0.05.
Tmax indicates the time after dosing in which a maximum response was observed.
Initial screens of all peptides included (1) evaluating their analgesic ability when dosed IP or orally (indicative of NTR-2 agonism) and (2) evaluating their ability to induce hypothermia when IP, a secondary effect of NTR-1 agonist activity.

The target of the next series is NTR-1 (Homo sapiens, UniProt P30989). In words: Competitive NTR-1 binding versus radiolabeled NT[8-13].
Series [1] is described as follows: Acute toxicity, clinical observation and maximum tolerated dose in rats. The series is classed as in vivo, rat. The procedure: During the 2 and 24 hour post-dosing clinical observation periods, measurements of core body temperatures were taken.
Series [2] is described as follows: Pharmacokinetics of ABS212 in Sprague-Dawley rats. The conditions noted are these: for Vd: read-out: volume of distribution at terminal phase; for half-life: read-out: half-life (T1/2) (converted); for clearance: read-out: systemic clearance (converted). The class given is in vivo, rat. An excerpt:
These samples were used for the determination of plasma parent drug concentrations by LC/MS/MS for estimating pharmacokinetic parameters and oral bioavailability.

[3] abbreviates: Sprague-Dawley, rat, plasma, IV bolus 1 mg/kg.
Setting [4] is: Sprague-Dawley, rat, plasma, IV bolus 2.5 mg/kg.
The mark [5] stands for this setting: Sprague-Dawley, rat, plasma, IV bolus 5 mg/kg.
Setting [6] is: Sprague-Dawley, rat, plasma, oral 50 mg/kg.

Chain of NTR-2 (Q63384 whole entry): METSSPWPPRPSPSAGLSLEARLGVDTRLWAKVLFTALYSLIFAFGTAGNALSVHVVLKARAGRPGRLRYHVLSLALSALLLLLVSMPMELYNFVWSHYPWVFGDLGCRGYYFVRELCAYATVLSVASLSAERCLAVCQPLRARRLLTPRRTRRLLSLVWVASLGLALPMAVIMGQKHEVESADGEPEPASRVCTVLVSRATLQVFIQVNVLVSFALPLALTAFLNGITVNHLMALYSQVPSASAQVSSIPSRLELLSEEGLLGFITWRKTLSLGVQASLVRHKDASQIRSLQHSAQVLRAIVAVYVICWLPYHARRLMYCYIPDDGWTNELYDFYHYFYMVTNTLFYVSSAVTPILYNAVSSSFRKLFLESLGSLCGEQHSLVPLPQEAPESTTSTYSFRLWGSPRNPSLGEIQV
Chain of NTR-1 (P30989 whole entry, species assumed): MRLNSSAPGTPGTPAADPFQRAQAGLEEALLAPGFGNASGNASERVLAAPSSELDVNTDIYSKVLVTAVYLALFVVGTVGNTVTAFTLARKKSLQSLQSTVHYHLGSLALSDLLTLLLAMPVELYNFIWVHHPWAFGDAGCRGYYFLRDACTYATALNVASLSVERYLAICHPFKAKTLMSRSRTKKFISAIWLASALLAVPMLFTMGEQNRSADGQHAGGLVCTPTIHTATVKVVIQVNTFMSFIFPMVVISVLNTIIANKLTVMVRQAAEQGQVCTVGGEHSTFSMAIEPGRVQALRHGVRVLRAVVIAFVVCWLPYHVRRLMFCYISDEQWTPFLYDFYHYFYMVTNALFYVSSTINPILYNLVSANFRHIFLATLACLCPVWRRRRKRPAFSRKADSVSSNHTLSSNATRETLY

Take 1-Arg-Pro-Tyr-t-Leu-Leu [ABS202]: at NTR-2 (10 mg/kg), the “Tmax (I.P.) of %MPE” value is listed as 30-75 and the “MPE (I.P.)” value came out at 100%. In addition, the “asterisk at peptide name: significant activity in the hotplate assay” value at NTR-2 is “ABS202*”. Further, the “% MPE” value at NTR-2 (hotplate 52° C., cutoff 30 seconds, Table 10) is 100%. The “% MPE (tmax, min)” value at NTR-2 (hotplate, Table 10) was determined as 45 min. For the same compound, the “MPE (oral)” value at NTR-2 (hotplate, 20 mg/kg) is recorded as 52%. For the same compound, on NTR-2 (20 mg/kg), the “Tmax (Oral) of %MPE” value turned out to be 45.
Compound `CC[C@H](C)[C@H](NC(=O)[C@H](Cc1ccc(O)cc1)NC(=O)[C@@H]1CCCN1C(=O)[C@H](CCCNC(=N)N)NC(=O)[C@H](CCCNC(=N)NC)N=[N+]=[N-])C(=O)N[C@@H](CC(C)C)C(=O)O` [ABS16, X-Arg-Pro-Tyr-isoleu-Leu] yielded an EC50 at NTR-1 of 0.3 ± 0.05 nM.
On the same count and under the same terms, the result for `CCNC(=N)NCCC[C@H](N=[N+]=[N-])C(=O)N[C@@H](CCCNC(=N)N)C(=O)N1CCC[C@H]1C(=O)N[C@@H](Cc1ccc(O)cc1)C(=O)N[C@H](C(=O)N[C@@H](CC(C)C)C(=O)O)[C@@H](C)CC` [ABS17, X-Arg-Pro-Tyr-isoleu-Leu] reads 0.25 ± 0.07 nM.
`CC(C)C[C@H](NC(=O)[C@@H](NC(=O)[C@H](Cc1ccc(O)cc1)NC(=O)[C@@H]1CCCN1C(=O)[C@H](CCCNC(=N)N)NC(=O)[C@@H](C)CCCCCN)C(C)(C)C)C(=O)O` [ABS201 HCl] (X1-RPY[Tle]L-OH): in series [1] (50 mg/kg IV), the “clinical observation 2 hour post-dosing” value is recorded as “all animals appeared grossly normal although marked hypothermia was present” and the “clinical observation 24 hour post-dosing” value is on record as “all animals appeared grossly normal; hypothermia was absent”. The “acute behaviour during intravenous dosing” value in series [1] (50 mg/kg IV, slow push via tail vein) was “noticeably sedate”. Besides, in series [1] (250 mg/kg PO), the “clinical observation after oral dosing” value is listed as “appeared grossly normal at all time points”.
For the compound `CC(C)C[C@H](NC(=O)[C@@H](NC(=O)[C@H](Cc1ccc(O)cc1)NC(=O)[C@@H]1CCCN1C(=O)[C@H](CCCNC(=N)N)NC(=O)[C@@H](C)CCC[N+](C)(C)C)C(C)(C)C)C(=O)O` [ABS-212.2HCL] (X2-RPY[Tle]L-OH), the “clearance as % of rat hepatic blood flow (3.31 L/hr/kg)” value is reported as 32.33% in series [2] (IV bolus 1 mg/kg), 12.08% in series [2] (IV bolus 5 mg/kg) and 12.08% in series [2] (IV bolus […]). The Vd in series [2] (Sprague-Dawley, rat, plasma, IV 1 mg/kg) was found to be 0.43 ± 0.15 L/kg; in series [2] (Sprague-Dawley, rat, plasma, IV 2.5 mg/kg) it was 0.15 ± 0.01 L/kg; in series [2] (Sprague-Dawley, rat, plasma, IV 5 mg/kg) it was 0.16 ± 0.06 L/kg. The half-life is 16.8 ± 4.8 min in series [2] (setting [3]), 16.8 ± 6.6 min in series [2] (setting [4]), 17.4 ± 7.8 min in series [2] (setting [5]) and 85.2 ± 52.2 min in series [2] (setting [6]). The clearance in series [2] (setting [3]) was 17.8 mL/min/kg; in series [2] (setting [4]), 6.67 mL/min/kg; in series [2] (setting [5]), 6.67 mL/min/kg. The compound also yielded an AUC(0-inf) in series [2] (setting [6]) of 53.1 ± 39.6 ng·h/mL. In series [2] (setting [6]), this compound gave a Cmax of 27.1 ± 11.6 ng/mL. The Tmax in series [2] (setting [6]) was found to be 8.4 ± 3 min. In addition, in series [2] (Sprague-Dawley, rat, plasma, oral 50 mg/kg, 1 mg/kg group as IV dose data), the bioavailability was determined as 0.11 ± 0.08%.
Regarding Arg-Arg-Pro-Tyr-t-Leu-Leu [ABS213], the “Tmax (I.P.) of %MPE” value on NTR-2 is recorded as 30. The “MPE (I.P.)” value at NTR-2 (10 mg/kg) came out at 48%.
Turning to Arg-Arg-Pro-Tyr-t-Leu-Leu [ABS237], the “Tmax (I.P.) of %MPE” value at NTR-2 was 30. The “MPE (I.P.)” value at NTR-2 (10 mg/kg) worked out at 50%.
For the compound Boc-Arg-Pro-Tyr-t-Leu-Leu [ABS700], at NTR-2, the “Tmax (I.P.) of %MPE” value was 90 and the “MPE (I.P.)” value turned out to be 51%.
Consider Lys-Arg-Pro-Tyr-t-Leu-Leu [ABS205], for which, at NTR-2 (10 mg/kg), the “Tmax (I.P.) of %MPE” value is given as 15-30 and the “MPE (I.P.)” value is given as 86%. In addition, at NTR-2, the “asterisk at peptide name: significant activity in the hotplate assay” value is recorded as “ABS205*” and the “Tmax (Oral) of %MPE” value is 30. Also, the “MPE (oral)” value on NTR-2 (hotplate) stood at 66%.
As to Lys-Arg-Pro-Tyr-t-Leu-Leu [ABS229], at NTR-2 (10 mg/kg), the “Tmax (I.P.) of %MPE” value is reported as 60 and the “MPE (I.P.)” value is listed as 48%.
Regarding Orn-Arg-Pro-Tyr-t-Leu-Leu [ABS209], at NTR-2 (10 mg/kg), the “Tmax (I.P.) of %MPE” value is listed as 60 and the “MPE (I.P.)” value came out at 89%.
With Orn-Arg-Pro-Tyr-t-Leu-Leu [ABS233], at NTR-2 (10 mg/kg), the “Tmax (I.P.) of %MPE” value was 45 and the “MPE (I.P.)” value was determined as 51%.
As to hLys-Arg-Pro-Tyr-t-Leu-Leu [ABS225], at NTR-2, the “Tmax (I.P.) of %MPE” value is 15-45, the “asterisk at peptide name: significant activity in the hotplate assay” value is given as “ABS225*”, the “MPE (I.P.)” value is given as 100% and the “Tmax (Oral) of %MPE” value is 30. The “MPE (oral)” value on NTR-2 (hotplate) stood at 38%.
